Test results from patent publication US20240415845A1, “Compositions of Iboga Alkaloids and Methods of Treatment” (priority 2022, published 2024).
“And” between values parts separate entries of the source, which are not always exact repeats. Equal values may be shown once.

Key:
[1] = system: special operations veterans with combat and/or blast exposure; assay: Structural MRI (T1w, FreeSurfer): brain volume and cortical thickness; format: in vivo, human
Description: Structural imaging of the brain was also conducted on some of the subjects of Example 1. Gray matter constitutes about 40% of the brain and white matter constitutes about 60% of the brain. Gray matter contains most of the brain's neuronal cell nodes, it is fully developed once a person reaches their 20's and interprets sensor information from various parts of the body. White matter is made up of bundles which connect various gray matter areas, it develops throughout the 20's and peaks in middle age. Typical metrics analyzed in anatomical (T1-weighted, “T1w”) imaging include volume and/or shape of nuclei (e.g. caudate), volume and/or shape of ventricles of the brain, and cortical thickness (mm). These metrics can be used to study normal and abnormal neuroanatomy and are primarily used to quantify gray matter. A tool called FreeSurfer was applied to images for a T1w structural analysis (volume, cortical thickness) to adjust for bias, remove non-brain matter, segments by tissue, parcels the brain into standardized regions, and provides measurements of those regions. FreeSurfer measurements of whole brain volume, volume by tissue (gray, white, CSF), estimated intracranial volume (ICV), subcortical gray matter volume, cortical volume by region were done. […] In particular, analysis was done to determine if there was any loss in gray matter volume or cortical thickness, whether there was a loss in white matter volume or an increase in presence of white matter […]. Results are summarized in Table 3 and shown in FIGS. 17A-17B, and FIGS. 18A-18B.
The fMRI images were also inspected to determine the difference in volume in regional areas of the brain from baseline to one month after treatment. FIG. 18A is a bar graph showing the effect size of a change in volume in 47 brain regions indicated along the x-axis. […] The fMRI images were also inspected for whole brain thickness at baseline and one month after treatment. […] FIG. 18B is a bar graph showing the effect size of a cortical thickness change for the brain regions indicated along the x-axis, from baseline to one month after treatment. […] The right and left parahippocampal gyrus are involved in visuospatial processing, including scene perception, navigation, and emotional contextualization. The left orbitofrontal gyrus is involved in impulse control and reward valuation. The left insular cortex is associated with both the affective-perceptual and cognitive-evaluative forms of empathy, as well as awareness of hunger, pain and fatigue. The left entorhinal cortex is a widespread network hub for memory, navigation, and perception of time.

[2] = system: male veterans with a history of TBI; assay: Pseudo-continuous arterial spin labeling (pcASL) MRI of cerebral blood flow; format: in vivo, human; conditions: baseline, first post-treatment scan and one month post-treatment; paired t-test; 18 subjects
Description: Arterial spin labeling (ASL) MR was used to measure cerebral blood flow in some of the subjects of the subjects enrolled in the study of Example 1. As described in Example 3, pseudo-continuous ASL (pcASL) was performed on the subject at baseline, about 1 week after treatment, and one-month after treatment. […] A first metric of interest was change in net quantity (mL/100 g tissue/min) of blood entering different regions of the brain. Images of the left posterior orbital gyrus, left anterior insula, left and right cerebral white matter at baseline and 1-week post treatment (images not shown) were analyzed and compared. […] A paired t-test across 3 time points—baseline (pre-treatment), 1 week post-treatment, and 1 month post-treatment—was employed.
Arterial spin labeling (ASL) MRW was used to measure cerebral blood flow.
A first metric of interest was change in net quantity (mL/100 g tissue/min) of blood entering different regions of the brain. Images of the left posterior orbital gyrus, left anterior insula, left and right cerebral white matter at baseline and 1-2 days post treatment (images not shown) were analyzed and compared.
A paired t-test across 3 time points-baseline (pre-treatment), 1-2 days post-treatment, and one month post-treatment-was employed.

[3] = system: special operations veterans with combat and/or blast exposure; conditions: in vivo
[4] = in vivo; cited from earlier work
[5] = baseline to one month after treatment

CCC1CC2CC3c4[nH]c5ccc(OC)cc5c4CCN(C2)C13 (stereo not drawn) [ibogaine, Ibogaine]
regional volume change in cerebral white matter (left) and left ventral DC [1, 5]: Increases in volume | regional volume change in posterior corpus callosum and left choroid plexus [1, 5]: Decreases in volume | White matter hypointensities (corrected for cerebral white matter), change ([1]; baseline vs one month post treatment, 17 subjects, two-tailed p = 0.0789): Two-tailed: no significant differences | Subcortical Gray Matter volume, change ([1]; baseline vs one month post treatment, 17 subjects, two-tailed p = 0.0949): Two-tailed: no significant differences | Total Gray Matter volume, change ([1]; baseline vs one month post treatment, 17 subjects, two-tailed p = 0.4755): Two-tailed: no significant differences | Cortical Gray Matter volume, change ([1]; baseline vs one month post treatment, 17 subjects, two-tailed p = 0.4847): Two-tailed: no significant differences | damage to the brain by inspection of brain volume and thickness ([1]; one month after treatment): no apparent damage to the brain | right hemisphere mean cortical thickness, change ([1]; one month after treatment vs baseline): no significant difference | Left hemisphere mean cortical thickness, change ([1]; one month after treatment vs baseline, two-tailed p=0.7146): no significant difference | cortical thickness change in left entorhinal cortex, left-lateral-orbitofrontal pole, parahippocampal gyrus (bilaterally), left insular cortex, right-pars triangularis ([1]; one-month after treatment): Increases in cortical thickness | changes in absolute cerebral blood flow [2]: No significant changes | Cognitive Flexibility Composite (average of D-KEFS TMT Condition 4, Color/Word Interference Condition 4, Verbal Fluency Category Switching) score [3]: 56.6 ± 5.7 T score and 59.3 ± 5.0 T score | Cognitive Flexibility Composite, effect size D [3]: 0.74 and 0.43 | Cognitive Inhibition (D-KEFS Color/Word Interference, Condition 3) score [3]: 59.9 ± 6.4 T score and 59.9 ± 7.5 T score | Cognitive Inhibition (D-KEFS Color/Word Interference, Condition 3), effect size D [3]: 1.22 and 0.62 | Detection (CPT-3 Detection) score [3]: 41.2 ± 8.2 T score and 39.5 ± 7.5 T score | Detection (CPT-3 Detection), effect size D [3]: 0.86 and 1.05 | Phonemic Fluency (D-KEFS Verbal Fluency) score [3]: 60.8 ± 10.3 T score and 64.0 ± 10.1 T score | Problem Solving (D-KEFS TT, Total Achievement Score) score [3]: 59.1 ± 7.1 T score and 59.5 ± 7.9 T score | Problem Solving (D-KEFS TT, Total Achievement Score), effect size D [3]: 0.44 and 0.49 | Reaction Time (CPT-3 Reaction Time) score [3]: 44.1 ± 6.8 T score and 46.4 ± 8.1 T score | Reaction Time (CPT-3 Reaction Time), effect size D [3]: 0.52 and 0.29 | Semantic Fluency (D-KEFS Verbal Fluency) score [3]: 60.2 ± 12.2 T score and 63.6 ± 7.8 T score | Sustained Attention (CPT-3 Hit Reaction Time Block Change) score [3]: 50.8 ± 7.9 T score and 51.2 ± 7.7 T score | Verbal Memory (HVLT-R) score [3]: 49.0 ± 9.2 T score and 53.1 ± 8.8 T score | Visuospatial Memory (BVMT-R) score [3]: 58.8 ± 7.1 T score and 58.3 ± 6.6 T score | Visuospatial Memory (BVMT-R), effect size D [3]: 0.32 and 0.50 | adverse effect on processing speed, individual D-KEFS results [3]: no indication of an adverse effect | declines across any neuropsychological performance domain [3]: No declines | executive functioning (inhibition, cognitive flexibility, problem-solving, phonemic fluency, working memory), effect sizes D [3]: 0.31-1.22 | performance changes in language (semantic fluency) [3]: No significant performance changes | processing speed, effect sizes D [3]: 0.97-1.34 | slowing of reaction time, effect sizes D [3]: 0.29-0.52 | sustained attention accuracy (detection), effect sizes D [3]: 0.86-1.05 | Processing Speed (PSI, WAIS-IV) score ([3]; iv): 59.2 ± 9.7 T score and 61.6 ± 10.7 T score | Processing Speed (PSI, WAIS-IV), effect size D ([3]; iv): 0.97 and 1.34 | Working Memory (WMI, WAIS-IV) score ([3]; iv): 57.0 ± 9.5 T score and 57.6 ± 9.2 T score | Working Memory (WMI, WAIS-IV), effect size D ([3]; iv): 0.37 and 0.31 | people who may suffer from cardiac arrest when treated [4]: Approximately 1 in 300
